“Also recorded” adds a separate entry of the source. Where two headings read alike, the source gives them in different places.
Tests used:
[1] = Table 1, drugs developed to target muscle mass; cited from earlier work
[2] = tested on: dexamethasone-treated mice; settings: for running capacity / exercise / Muscle mass: dexamethasone-treated mice; for Muscle mass: oxidative, glycolytic and mixed muscles
Description: It was also further examined whether an osteocalcin treatment might preserve muscle function and/or muscle mass in a clinically relevant mouse model of sarcopenia.
FIG. 9A and FIG. 9B show exemplary graphs pf exemplary modeling sarcopenia in mice.

[3] = tested on: mice that received dexamethasone; assay: deleterious effect of dexamethasone on muscle function, osteocalcin given concomitantly or after two weeks of dexamethasone; format: in vivo
young and older mice [4] = assay: exercise capacity of young and older mice given exogenous osteocalcin; format: in vivo; settings: FIG. 1
Description: Exemplary data showing that osteocalcin signaling in myofibers favors adaptation to exercise because it increases uptake and utilization of glucose into the tricarboxylic acid cycle and promotes fatty acids utilization are included in International Patent Application Publication WO 2016/081728, the disclosure of which is incorporated herein by reference. Osteocalcin signaling in myofibers is also the main determinant of the exercise-induced upregulation of Interleukin-6, a myokine that favors the generation of bioactive osteocalcin and of nutrients made available for myofibers. Furthermore, circulating osteocalcin levels decline steeply before mid-life and increase less during exercise in older than in younger mice. […] Thus, there is an osteocalcin-interleukin-6 axis that can be necessary to enhance muscle function during exercise and can be harnessed to reverse age-induced decline in exercise capacity.
Exemplary data showing that, by signaling in myofibers, osteocalcin favors adaptation to exercise because it promotes glucose uptake and utilization in the tricarboxylic acid (TCA) cycle as well as utilization of FAs are also included in International Patent Application Publication WO 2016/081728, the disclosure of which is incorporated herein by reference. […]

Liver Factor 1 = Liver Factor 1 production during exercise; format: in vivo; settings: FIG. 7
Description: OCN signaling in the liver is required for exercise capacity (see FIG. 6). OCN enhances Liver Factor 1 production during exercise (see FIG. 7). Liver Factor 1 mediates OCN regulation of exercise capacity (see FIG. 8).

Dexamethasone mice = assay: another recognized model of sarcopenia: dexamethasone delivered by pumps for 28 days, muscle mass and treadmill running; format: in vivo; design: dose or concentration left out as unconfirmed; settings: dexamethasone by pumps for 28 days; osteocalcin also by pumps
young and older mice [5] = settings: exogenous osteocalcin, data of WO 2016/081728, cited from earlier work

In the case of `CN(C)N(C)C(=O)[C@@]1(Cc2ccccc2)CCCN(C(=O)[C@@H](Cc2c[nH]c3ccccc23)NC(=O)C(C)(C)N)C1` [Anamorelin, reference compound], the Muscle mass [1] is listed as “✓”.

In the case of `C[C@](O)(COc1ccc(C#N)cc1)C(=O)Nc1ccc(C#N)c(C(F)(F)F)c1` [Enbosarm, reference compound], the Muscle mass [1] is listed as “✓”.

For `C[C@H](Nc1ccc(C#N)c(Cl)c1Cl)C(C)(C)O` [GSK2849466, reference compound], the Muscle mass [1] is given as “✓”.

For `N#Cc1ccc(N2CCC[C@@H]2[C@@H](O)C(F)(F)F)cc1C(F)(F)F` [VK5211, reference compound], the “running capacity / exercise” value [2] is given as “only had a modest effect”, the Muscle mass [2] is given as “fully restored muscle mass to normal levels” and the Muscle mass [1] is given as “✓”.

For `C[C@@H]1C[C@H]2[C@@H]3CCC4=CC(=O)C=C[C@]4(C)[C@@]3(F)[C@@H](O)C[C@]2(C)[C@@]1(O)C(=O)CO` [dexamethasone, reference compound], the “decrease of circulating lymphocyte counts” value ([2]; after dexamethasone treatment) was 50%, the “diminution of gastrocnemius muscle mass” value ([2]; mouse, in vivo) was 30% and the “reduction of running capacity” value ([2]; mouse, in vivo) was 50%.

In the case of “osteocalcin (YLGASVPSPDPLEPTREQCELNPACDELSDQYGLKTAYKRIYGITI; UniProt P86546 50-95, looked up) [a bone-derived hormone]”, the “deleterious effect of dexamethasone on muscle function” value ([3]; concomitant treatment with osteocalcin, 1 year-old mice) is reported as “presented”, the “deleterious effect of dexamethasone on muscle function” value ([3]; osteocalcin administered in mice that had already received dexamethasone for two weeks) is reported as “partially revert” and the “performance compared with VK5211” value ([2]; Dex-induced sarcopenia) is reported as “outperforms”. For the same molecule, the “IL-6 in Dex-induced sarcopenia” value ([2]; FIG. 12) was “favors IL-6”, the “running capacity / exercise” value [2] was “fully rescued the running capacity” and the Muscle mass ([2]; listed as OCN) was “marginal effect”. For the same molecule, the DEX toxicity ([2]; mouse, in vivo) was “does not interfere”, the “dexamethasone-induced immune suppression (circulating lymphocyte counts)” value ([2]; mouse, in vivo) was “did not interfere with nor did it exacerbate” and the off-target effects ([2]; mouse, in vivo) was “no overt off-target effects”. The “age-related decline in exercise” value (young and older mice [4]) was “corrects”, the “Liver Factor 1 production during exercise” value (Liver Factor 1) was “enhances” and the Muscle mass (Dexamethasone mice) was “lost significantly less muscle mass”. The “exercise capacity (ability to run on a treadmill)” value (Dexamethasone mice) was “normal exercise capacity”, the “safety / negative side-effects” value (animal models) was “safe with no recorded negative side-effects” and the “exercise capacity of older mice” value (young and older mice [5]; 12 to 15 month-old mice) was “confers to 15 months-old mice exercise capacity of 3 month-old mice; also recorded: confers to 12 to 15 month-old mice the exercise capacity of 3 month-old mice”. The “exercise capacity of young mice” value (young and older mice [5]) was “increases the exercise capacity”.

B1: PF-06252616: Myostatin inhibitor, Pfizer (antibody, chains of the INN, looked up, V domains shown)
VH: EVQLLESGGGLVQPGGSLRLSCAASGFTFSSYAMSWVRQAPGKGLEWVSTISSGGSYTSYPDSVKGRFTISRDNSKNTLYLQMNSLRAEDTAVYYCAKQDYAMNYWGQGTLVTVSS
VL: DIQMTQSPSSLSASVGDRVTITCKASQDVSTAVAWYQQKPGKAPKLLIYSASYRYTGVPSRFSGSGSGTDFTLTISSLQPEDFATYYCQQHYSTPWTFGGGTKVEIK
In the case of B1, the Muscle mass [1] is listed as “✓”.

B2: LY2495655: Myostatin inhibitor, Eli Lilly (antibody, chains of the INN, looked up, V domains shown)
VH: EVQLVESGGGLVQPGGSLRLSCAASGLTFSRYPMSWVRQAPGKGLVWVSAITSSGGSTYYSDTVKGRFTISRDNAKNTLYLQMNSLRAEDTAVYYCARLPDYWGQGTLVTVSS
VL: EIVLTQSPGTLSLSPGERATLSCRASSSVSSSYLHWYQQKPGQAPRLLIYSTSNLVAGIPDRFSGSGSGTDFTLTISRLEPEDFAVYYCQHHSGYHFTFGGGTKVEIK
For B2, the Muscle mass [1] is given as “✓”.

B3: BYM338: Myostatin inhibitor, Novartis (antibody, chains of the INN, looked up, V domains shown)
VH: QVQLVQSGAEVKKPGASVKVSCKASGYTFTSSYINWVRQAPGQGLEWMGTINPVSGSTSYAQKFQGRVTMTRDTSISTAYMELSRLRSDDTAVYYCARGGWFDYWGQGTLVTVSS
VL: QSALTQPASVSGSPGQSITISCTGTSSDVGSYNYVNWYQQHPGKAPKLMIYGVSKRPSGVSNRFSGSKSGNTASLTISGLQAEDEADYYCGTFAGGSYYGVFGGGTKLTVL
In the case of B3, the Muscle mass [1] is given as “✓”.

B4: REGN1033: Myostatin inhibitor, Regeneron (antibody, chains of the INN, looked up, V domains shown)
VH: EVQVLESGGDLVQPGGSLRLSCAASGFTFSAYAMTWVRQAPGKGLEWVSAISGSGGSAYYADSVKGRFTISRDNSKNTVYLQMNSLRAEDTAVYYCAKDGAWKMSGLDVWGQGTTVIVSS
VL: DIQMTQSPASLSASVGDRVTITCRASQDISDYLAWYQQKPGKIPRLLIYTTSTLQSGVPSRFRGSGSGTDFTLTISSLQPEDVATYYCQKYDSAPLTFGGGTKVEIK
For B4, the Muscle mass [1] is given as “✓”.

From US12662521B2, “Engineered osteocalcins for treating sarcopenia” (The Trustees of Columbia University in the City of New York, priority 2020, dated 2026)
